In US11529299B2, “Hair care compositions comprising a 2-pyridinol-n-oxide material and an iron chelator” (The Procter & Gamble Company, priority 2017, dated 2022):
One block for each compound: values may come before it.

Legend:
Malassezia furfur = test: Minimum inhibitory concentration (MIC), growth inhibition of Malassezia by culture optical density; format: cell-based; details: material alone, OD <= 20% of untreated control, 33° C., two days, M. Dixon medium pH 5.5, average of two replicates; for MIC: Malassezia furfur, 48 h
Experimental: To measure the growth inhibition properties of test materials against Malassezia, the following protocol is followed. The Malassezia furfur is cultured in 50 ml M. […] The pH is adjusted to 5.5 using 1N HCl. The media is autoclaved. Starting cultures are prepared by incubating freezer stocks with shaking at 33° C. The inoculum of Malassezia cells is 5.5×10^5 cfu/ml. Cells are incubated at 33° C. for two days. After the two day incubation optical density is read and background subtracted. MIC values are determined by averaging the results from two replicate experiments.

M.Furfur 7892 cells = test: Modified Fractional Inhibitory Concentration (MFIC), anti-Malassezia activity of combinations; format: cell-based, Malassezia furfur; details: titrated from 400 ppm; for MFIC: Table 3, chelator as Material #2 combined with the 2-pyridinol-N-oxide material at 1/2 its MIC; for Modified Fractional Inhibitory Concentration (MFIC): lowest concentration of Material #2 inhibiting growth with Material #1 (1-hydroxy-4-methyl-6-(2,4,4-trimethylpentyl)-2-pyridone monoethanolamine salt) at 1/2 its MIC, 33° C., 2 days
Experimental: A Modified Fractional Inhibitory Concentration (MFIC) is used to determine the combinatorial effects of two chemicals on anti-Malassezia activity in a tissue culture setting. […] I. […] Low levels of M.Furfur 7892 cells are inoculated into each well of a 96 well plate. • 3. […] Plates are incubated at 33° C. for 2 days. • 6. Optical densities (OD's) are then determined using a spectrophotometer. II. […] Inhibition of growth is determined if the culture optical density is less than or equal to ⅕ (20%) of the culture optical density of the untreated control • 2.

[1] = from NIST Standard Reference Database 46; cited from earlier work

MIC (Malassezia furfur): 25 µg/mL
SMILES: Cc1cc(CC(C)CC(C)(C)C)n(O)c(=O)c1.NCCO (centres unmarked) [1-hydroxy-4-methyl-6-(2,4,4-trimethylpentyl)-2-pyridone monoethanolamine salt]

Minimum inhibitory concentration (MIC) (Malassezia furfur): >400 ppm
SMILES: O=C(O)CN(CCN(CC(=O)O)CC(=O)O)CCN(CC(=O)O)CC(=O)O [Diethylenetriaminepentaacetic acid]
MFIC (M.Furfur 7892 cells): 37 ppm | Modified Fractional Inhibitory Concentration (MFIC) (M.Furfur 7892 cells): 37 ppm | Log K1 (iron binding affinity) [1]: 28

Minimum inhibitory concentration (MIC) (Malassezia furfur): >400 ppm
SMILES: O=P(O)(O)CN(CCN(CP(=O)(O)O)CP(=O)(O)O)CCN(CP(=O)(O)O)CP(=O)(O)O [Diethylenetriaminepentakis(methylenephosphonic acid)]
MFIC (M.Furfur 7892 cells): 50 ppm | Modified Fractional Inhibitory Concentration (MFIC) (M.Furfur 7892 cells): 50 ppm | Log K1 (iron binding affinity) [1]: 23

More lines, now with the values behind:

SMILES: O=C(O)CC(O)(CC(=O)O)C(=O)O [Citric Acid]
MFIC (M.Furfur 7892 cells): >400 ppm | Log K1 (iron binding affinity) [1]: 11

SMILES: CC(=O)N(O)CCCCCNC(=O)CCC(=O)N(O)CCCCCNC(=O)CCC(=O)N(O)CCCCCN [Desferrioxamine]
MFIC (M.Furfur 7892 cells): 5 ppm | Modified Fractional Inhibitory Concentration (MFIC) (M.Furfur 7892 cells): 5 ppm | MIC (Malassezia furfur): > 400 µg/mL | Log K1 (iron binding affinity) [1]: 31

SMILES: CC(C(=O)O)N(CC(=O)O)CC(=O)O (centres unmarked) [Methylglycine diacetic acid (MGDA), Methylglycine diacetic acid]
MFIC (M.Furfur 7892 cells): >400 ppm | Log K1 (iron binding affinity) [1]: 16
